Reference: patent publication US20180187184A1, “NOVEL CONSTRUCTS AND SCREENING METHODS” (Systasy Bioscience GmbH, priority 2016, published 2018)
Where two headings read alike, the source gives them in different places.

How the values were obtained:
primary neurons = assay: Rotenone dose-response cell viability assay (nuclei count, genomic DNA and total RNA quantification); assay type: cell-based, mouse; conditions: for IC50: Mus musculus, Primary neuron, 168 h
Procedure: Cells were incubated under appropriate culturing conditions until DIV14.
Cell nuclei were stained on DIV14 with Hoechst dye and evaluated with a Zeiss Observer Z1 microscope. Subsequently, the neuron cultures were lysed and gDNA as well as total RNA was isolated using the Qiagen AllPrep DNA/RNA Mini Kit. The gDNA and total RNA concentrations were determined using a UV spectrophotometer.
The present inventors first evaluated changes in the abundance of genomic DNA and total RNA in response to cytotoxic stress within a primary neuron population.

E-SARE sensor = assay: E-SARE luciferase activity in primary neurons upon stimulation; assay type: cell-based, mouse; conditions: DIV14
Source text: For multiplate assays, cells were transfected (for cell lines) using Lipofectamine2000 (Invitrogen) according to the manufacturer's instructions or infected (for primary neurons) by an E-SARE-luciferase containing AAV with 500-1000 AAV GCs per cell.
The assay compares an unstimulated response with a stimulated response.
Finally, the E-SARE sensor not only responds to neuronal silencing (TTX/APV) and synaptic stimulation (BIC/4-AP), but can also be induced by brain-derived neurotrophic factor (BDNF) which is a well-established stimulus with functions in neuronal differentiation and plasticity (FIG. 6C) (Park H and Poo M. Nat Rev Neurosci. 2013 January; 14(1):7-23). The optimized and validated E-SARE sensor has been subsequently used for developing the pooled RNAi screen in primary neurons.

Molecule | IC50 (primary neurons; read-out: IC50, genomic DNA content) [nM] | IC50 (primary neurons; read-out: IC50, total RNA content) [nM] | IC50 (primary neurons; read-out: IC50, viable cells (pyknotic nuclei filtered out)) [nM] | reduction of genomic DNA content (primary neurons; rotenone concentrations above 100 nM, 7 days) [%] | E-SARE sensor activity (E-SARE sensor)
C=C(C)[C@H]1Cc2c(ccc3c2O[C@@H]2COc4cc(OC)c(OC)cc4[C@@H]2C3=O)O1 [rotenone] | 40 | 15 | 14 | ~40 | –
brain-derived neurotrophic factor (protein, UniProt P23560 19-247, looked up, well-established stimulus with functions in neuronal differentiation and plasticity) Neurotrophic factor BDNF …: APMKEANIRGQGGLAYPGVRTHGTLESVNGPKAGSRGLTSLADTFEHVIEELLDEDQKVRPNEENNKDADLYTSRVMLSSQVPLEPPLLFLLEEYKNYLDAANMSMRVRRHSDPARRGELSVCDSISEWVTAADKKTAVDMSGGTVTVLEKVPVSKGQLKQYFYETKCNPMGYTKEGCRGIDKRHWNSQCRTTQSYVRALTMDSKKRIGWRFIRIDTSCVCTLTIKRGR | – | – | – | – | induced
